Data on 18 compounds can be found in patent publication US11345711B2, “8,9-dihydroimidazo[1,2-a]pyrimido[5,4-e]pyrimidin-5(6H)-ones” (IMPACT THERAPEUTICS (SHANGHAI), INC, priority 2016, dated 2022).

In one test the test system is LoVo cells. The test can be described thus: MTT based cell viability assay on LoVo cells. To be noted: Homo sapiens, LoVo, 72 h, 3 d, read-out: IC50, growth inhibition of LoVo cells. The method, boiled down: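 Inhibition of LoVo proliferation was derived as IC50 from a sigmoidal dose-response fit of cell survival. Readout was MTT (0.5 mg/mL, 4 h) with absorbance at 552/630/690 nm, after 3-day treatment at 37 °C. Eight-point series from 10 μM to 0.01 μM, DMSO control, 1% DMSO final.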

The next test deals with Wee1 (h) (Homo sapiens, UniProt P30291). The test can be described thus: Wee1 kinase (h) detection method, [γ-33P]-ATP filter assay. Type of test: biochemical.
Sequence of Wee1 (h) (P30291 whole entry): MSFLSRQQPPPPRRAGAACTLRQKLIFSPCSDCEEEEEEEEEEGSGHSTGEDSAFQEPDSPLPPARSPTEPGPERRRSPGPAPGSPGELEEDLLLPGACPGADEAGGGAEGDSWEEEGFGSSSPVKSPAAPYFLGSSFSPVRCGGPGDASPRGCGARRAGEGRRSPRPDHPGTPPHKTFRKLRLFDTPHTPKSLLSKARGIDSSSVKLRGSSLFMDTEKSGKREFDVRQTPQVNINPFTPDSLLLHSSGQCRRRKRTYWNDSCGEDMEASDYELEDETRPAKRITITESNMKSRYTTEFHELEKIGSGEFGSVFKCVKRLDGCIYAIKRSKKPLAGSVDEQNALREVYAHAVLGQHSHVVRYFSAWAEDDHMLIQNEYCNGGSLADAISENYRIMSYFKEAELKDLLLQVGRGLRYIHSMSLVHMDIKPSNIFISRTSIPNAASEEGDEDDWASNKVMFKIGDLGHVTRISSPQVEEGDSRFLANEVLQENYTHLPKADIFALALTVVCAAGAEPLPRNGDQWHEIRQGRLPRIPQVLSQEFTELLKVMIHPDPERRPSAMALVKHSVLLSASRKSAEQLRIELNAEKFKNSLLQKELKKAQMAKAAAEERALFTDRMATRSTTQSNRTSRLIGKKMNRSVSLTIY
A further test has as its system NCI-H1299 cells. The experiment in a line: MTT based cell viability assay on NCI-H1299 cells. The settings on record: Homo sapiens, read-out: IC50, growth inhibition of NCI-H1299 cells. The method, boiled down: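 Viability read-out was MTT reduction (0.5 mg/mL, 4 h, absorbance 552/630/690 nm) after 3-day compound exposure at 37 °C of NCI-H1299 cells seeded at 1000 per well. Dilutions spanned 10 μM–0.01 μM in DMSO, final DMSO 1‰. Survival-versus-concentration curves were fitted sigmoidally to give IC50.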

SMILES strings stand for the structures. Where two headings read alike, the source gives them in different places.

Consider `CN1CCN(c2c(Cl)cc(Nc3ncc4c(n3)N3CCN=C3N(c3c(Cl)cccc3Br)C4=O)cc2Cl)CC1` [Example 164, 6-(2-Bromo-6-chlorophenyl)-2-((3,5-dichloro-4-(4-methylpiperazin-1-yl)phenyl)amino)-8,9-dihydroimidazo[1,2-a]pyrimido[5,4-e]pyrimidin-5(6H)-one], for which the IC50 with LoVo cells came to 101 nM; with NCI-H1299 cells (NCI-H1299, NCI-H1299 cells), 159 nM. Further, the “Inh. (%) of Wee1 kinase enzyme activity” value on Wee1 (h) (C 0.01 μm compound) is listed as 17%; at Wee1 (h) (C 0.1 μm compound), 68%; at Wee1 (h) (C 1 μm compound), 97%.

For `Cc1cc(Nc2ncc3c(n2)N2CCN=C2N(c2c(Cl)cccc2Br)C3=O)cc(F)c1N1CCN(C)CC1` [Example 165, 6-(2-Bromo-6-chlorophenyl)-2-((3-fluoro-5-methyl-4-(4-methylpiperazin-1-yl)phenyl)amino)-8,9-dihydroimidazo[1,2-a]pyrimido[5,4-e]pyrimidin-5(6H)-one], the concentration for half-maximal inhibition (IC50) in the test on LoVo cells is 24.1 nM; with NCI-H1299 cells (NCI-H1299, NCI-H1299 cells) it was 97.3 nM. The “Inh. (%) of Wee1 kinase enzyme activity” value on Wee1 (h) (C 1 μm compound) turned out to be 92%.

As for `Cc1cc(Nc2ncc3c(n2)N2CCN=C2N(c2c(Cl)cccc2Br)C3=O)cc(Cl)c1N1CCN(C)CC1` [Example 166, 6-(2-Bromo-6-chlorophenyl)-2-((3-chloro-5-methyl-4-(4-methylpiperazin-1-yl)phenyl)amino)-8,9-dihydroimidazo[1,2-a]pyrimido[5,4-e]pyrimidin-5(6H)-one], the IC50 turned out to be 55.5 nM in the test with LoVo cells and 99.3 nM in the test with NCI-H1299 cells (NCI-H1299, NCI-H1299 cells). The “Inh. (%) of Wee1 kinase enzyme activity” value on Wee1 (h) (C 0.01 μm compound) was 28%; at Wee1 (h) (C 0.1 μm compound), 86%; on Wee1 (h) (C 1 μm compound), 98%.

Turning to `Cc1cc(Nc2ncc3c(n2)N2CCN=C2N(c2c(Cl)cccc2Br)C3=O)cc(Br)c1N1CCN(C)CC1` [Example 167, 6-(2-Bromo-6-chlorophenyl)-2-((3-bromo-5-methyl-4-(4-methylpiperazin-1-yl)phenyl)amino)-8,9-dihydroimidazo[1,2-a]pyrimido[5,4-e]pyrimidin-5(6H)-one], the IC50 worked out at 62.7 nM in the test on LoVo cells and 107 nM in the test on NCI-H1299 cells (NCI-H1299, NCI-H1299 cells). Further, the figures for the “Inh. (%) of Wee1 kinase enzyme activity” value at Wee1 (h) (C 0.01 μm compound), at Wee1 (h) (C 0.1 μm compound) and on Wee1 (h) (C 1 μm compound) were 21%, 82% and 98%, respectively.

With `Cc1cccc(F)c1N1C(=O)c2cnc(Nc3ccc(N4CCN(C)CC4)c(Cl)c3)nc2N2CCN=C21` [Example 168, 6-(2-Fluoro-6-methylphenyl)-2-((3-chloro-4-(4-methylpiperazin-1-yl)phenyl)amino)-8,9-dihydroimidazo[1,2-a]pyrimido[5,4-e]pyrimidin-5(6H)-one], the IC50 in the test on LoVo cells stood at 296 nM; with NCI-H1299 cells (NCI-H1299 cells), 599 nM. Besides, the “Inh. (%) of Wee1 kinase enzyme activity” value on Wee1 (h) (C 1 μm compound) worked out at 89%.

As to `Cc1cc(Nc2ncc3c(n2)N2CCN=C2N(c2c(C)cccc2F)C3=O)cc(C)c1N1CCN(C)CC1` [Example 169, 6-(2-Fluoro-6-methylphenyl)-2-((3,5-dimethyl-4-(4-methylpiperazin-1-yl)phenyl)amino)-8,9-dihydroimidazo[1,2-a]pyrimido[5,4-e]pyrimidin-5(6H)-one], the IC50 with LoVo cells came to 165 nM; in the test on NCI-H1299 cells (NCI-H1299, NCI-H1299 cells), 274 nM. For the same compound, the entries for the “Inh. (%) of Wee1 kinase enzyme activity” value at Wee1 (h) (C 0.01 μm compound), on Wee1 (h) (C 0.1 μm compound) and at Wee1 (h) (C 1 μm compound) were 16%, 73% and 93%, respectively.

In the case of `Cc1cccc(Cl)c1N1C(=O)c2cnc(Nc3ccc(N4CCN(C)CC4)c(Cl)c3)nc2N2CCN=C21` [Example 171, 6-(2-Chloro-6-methylphenyl)-2-((3-chloro-4-(4-methylpiperazin-1-yl)phenyl)amino)-8,9-dihydroimidazo[1,2-a]pyrimido[5,4-e]pyrimidin-5(6H)-one], the IC50 in the test with LoVo cells was determined as 228 nM; in the test with NCI-H1299 cells (NCI-H1299, NCI-H1299 cells) it was 442 nM. In addition, the results for the “Inh. (%) of Wee1 kinase enzyme activity” value on Wee1 (h) (C 0.01 μm compound), on Wee1 (h) (C 0.1 μm compound) and on Wee1 (h) (C 1 μm compound) were 16%, 59% and 95%, respectively.

Consider `Cc1cccc(Cl)c1N1C(=O)c2cnc(Nc3cc(Cl)c(N4CCN(C)CC4)c(Cl)c3)nc2N2CCN=C21` [Example 172, 6-(2-Chloro-6-methylphenyl)-2-((3,5-dichloro-4-(4-methylpiperazin-1-yl)phenyl)amino)-8,9-dihydroimidazo[1,2-a]pyrimido[5,4-e]pyrimidin-5(6H)-one], for which the IC50 in the test on LoVo cells was 117 nM; in the test on NCI-H1299 cells (NCI-H1299, NCI-H1299 cells) it was 362 nM. The “Inh. (%) of Wee1 kinase enzyme activity” value worked out at 12% at Wee1 (h) (C 0.01 μm compound), 60% at Wee1 (h) (C 0.1 μm compound) and 91% at Wee1 (h) (C 1 μm compound).

Consider `Cc1cc(Nc2ncc3c(n2)N2CCN=C2N(c2c(C)cccc2Cl)C3=O)cc(Cl)c1N1CCN(C)CC1` [Example 173, 6-(2-Chloro-6-methylphenyl)-2-((3-chloro-5-methyl-4-(4-methylpiperazin-1-yl)phenyl)amino)-8,9-dihydroimidazo[1,2-a]pyrimido[5,4-e]pyrimidin-5(6H)-one], for which the IC50 in the test with LoVo cells turned out to be 99.2 nM; in the test on NCI-H1299 cells (NCI-H1299, NCI-H1299 cells), 226 nM. Moreover, the “Inh. (%) of Wee1 kinase enzyme activity” value came out at 26% at Wee1 (h) (C 0.01 μm compound), 71% on Wee1 (h) (C 0.1 μm compound) and 94% at Wee1 (h) (C 1 μm compound).

Take `Cc1cc(Nc2ncc3c(n2)N2CCN=C2N(c2c(C)cccc2Cl)C3=O)cc(C)c1N1CCN(C)CC1` [Example 174, 6-(2-Chloro-6-methylphenyl)-2-((3,5-dimethyl-4-(4-methylpiperazin-1-yl)phenyl)amino)-8,9-dihydroimidazo[1,2-a]pyrimido[5,4-e]pyrimidin-5(6H)-one]: the IC50 stood at 136 nM in the test with LoVo cells and 152 nM with NCI-H1299 cells (NCI-H1299, NCI-H1299 cells). Also, the “Inh. (%) of Wee1 kinase enzyme activity” value on Wee1 (h) (C 0.01 μm compound) is 30%; on Wee1 (h) (C 0.1 μm compound) it was 83%; on Wee1 (h) (C 1 μm compound), 94%.

On to `O=C1c2cnc(Nc3ccc(N4CCNCC4)cc3)nc2N2CCN=C2N1c1c(Cl)cccc1Cl` [Example 175, 6-(2,6-Dichlorophenyl)-2-((4-(piperazin-1-yl)phenyl)amino)-8,9-dihydroimidazo[1,2-a]pyrimido[5,4-e]pyrimidin-5(6H)-one], for which the values for the IC50 in the test on LoVo cells and in the test with NCI-H1299 cells (NCI-H1299 cells) were 192 nM and 269 nM, respectively. Further, the “Inh. (%) of Wee1 kinase enzyme activity” value at Wee1 (h) (C 1 μm compound) amounted to 95%.

As for `O=C1c2cnc(Nc3ccc(N4CCNCC4)c(Cl)c3)nc2N2CCN=C2N1c1c(Cl)cccc1Cl` [Example 176, 6-(2,6-Dichlorophenyl)-2-((3-chloro-4-(piperazin-1-yl)phenyl)amino)-8,9-dihydroimidazo[1,2-a]pyrimido[5,4-e]pyrimidin-5(6H)-one], the IC50 in the test on LoVo cells was 73.6 nM; in the test with NCI-H1299 cells (NCI-H1299 cells), 126 nM. In addition, the “Inh. (%) of Wee1 kinase enzyme activity” value on Wee1 (h) (C 1 μm compound) amounted to 96%.

As to `COc1cc(Nc2ncc3c(n2)N2CCN=C2N(c2c(Cl)cccc2Cl)C3=O)ccc1N1CCNCC1` [Example 178, 6-(2,6-Dichlorophenyl)-2-((3-methoxy-4-(piperazin-1-yl)phenyl)amino)-8,9-dihydroimidazo[1,2-a]pyrimido[5,4-e]pyrimidin-5(6H)-one], the IC50 in the test on LoVo cells amounted to 281 nM; with NCI-H1299 cells (NCI-H1299 cells), 360 nM. Moreover, on Wee1 (h) (C 1 μm compound), the “Inh. (%) of Wee1 kinase enzyme activity” value is recorded as 94%.

Regarding `O=C1c2cnc(Nc3ccc(N4CCNCC4)c(CO)c3)nc2N2CCN=C2N1c1c(F)cccc1Cl` [Example 179, 6-(2-Chloro-6-fluorophenyl)-2-((3-(hydroxymethyl)-4-(piperazin-1-yl)phenyl)amino)-8,9-dihydroimidazo[1,2-a]pyrimido[5,4-e]pyrimidin-5(6H)-one], the IC50 turned out to be 2860 nM in the test on LoVo cells and 70600 nM in the test with NCI-H1299 cells (NCI-H1299 cells). The “Inh. (%) of Wee1 kinase enzyme activity” value at Wee1 (h) (C 1 μm compound) came to 95%.

Consider `O=C1c2cnc(Nc3ccc(N4CCNCC4)c(CO)c3)nc2N2CCN=C2N1c1c(Cl)cccc1Cl` [Example 180, 6-(2,6-Dichlorophenyl)-2-((3-(hydroxymethyl)-4-(piperazin-1-yl)phenyl)amino)-8,9-dihydroimidazo[1,2-a]pyrimido[5,4-e]pyrimidin-5(6H)-one], for which the IC50 in the test on LoVo cells is 2380 nM; with NCI-H1299 cells (NCI-H1299 cells), 2050 nM. At Wee1 (h) (C 1 μm compound), the “Inh. (%) of Wee1 kinase enzyme activity” value is reported as 96%.

On to `CN1CCN(c2ccc(Nc3ncc4c(n3)N3CCN=C3N(c3c(Cl)cccc3Cl)C4=O)cc2CO)CC1` [Example 181, 6-(2,6-Dichlorophenyl)-2-((3-(hydroxymethyl)-4-(4-methylpiperazin-1-yl)phenyl)amino)-8,9-dihydroimidazo[1,2-a]pyrimido[5,4-e]pyrimidin-5(6H)-one], for which the IC50 came out at 142 nM in the test on LoVo cells and 187 nM in the test on NCI-H1299 cells (NCI-H1299 cells). Moreover, at Wee1 (h) (C 1 μm compound), the “Inh. (%) of Wee1 kinase enzyme activity” value was determined as 96%.

In the case of `O=C1c2cnc(Nc3ccc(N4CCN(CCO)CC4)cc3)nc2N2CCN=C2N1c1c(Cl)cccc1Cl` [Example 182, 6-(2,6-Dichlorophenyl)-2-((4-(4-(2-hydroxyethyl)piperazin-1-yl)phenyl)amino)-8,9-dihydroimidazo[1,2-a]pyrimido[5,4-e]pyrimidin-5(6H)-one], the results for the IC50 with LoVo cells and in the test with NCI-H1299 cells (NCI-H1299 cells) were 243 nM and 503 nM, respectively. The “Inh. (%) of Wee1 kinase enzyme activity” value on Wee1 (h) (C 1 μm compound) was 94%.

For the compound `O=C1c2cnc(Nc3ccc(N4CCOCC4)cc3)nc2N2CCN=C2N1c1c(Cl)cccc1Cl` [Example 183, 6-(2,6-Dichlorophenyl)-2-((4-morpholinophenyl)amino)-8,9-dihydroimidazo[1,2-a]pyrimido[5,4-e]pyrimidin-5(6H)-one], the concentration for half-maximal inhibition (IC50) was determined as 775 nM in the test with LoVo cells and 1040 nM in the test on NCI-H1299 cells (NCI-H1299 cells). For the same compound, the “Inh. (%) of Wee1 kinase enzyme activity” value at Wee1 (h) (C 1 μm compound) worked out at 95%.
